For series [1], the system named is HL-60 cells. The series can be described thus: MTT assay, in vitro cytotoxic activity before and after storage of drug solutions. The series is classed as cell-based, human. To be noted: pH 7.0, 72 h drug incubation. (In general: Tetrazolium assays rely on reduction of a dye to a coloured formazan, in cell work by metabolically active cells.)
In series [2] the test system is p70S6K, 4E-BP-1 and BAD phosphorylation in Raji cells. The series can be described thus: Phosphorylation of mTOR downstream targets and BAD, western blot. The series is classed as cell-based, human. As for the experimental part:
The phosphorylation of p70S6K and 4E-BP1, two target molecules of mTOR, was examined as indications of mTOR inhibition.
The effect of rapamycin on BAD phosphorylation in 3-BrOP-treated cells was examined.
Protein lysates were prepared from the control and drug-treated cells, and separated by electrophoresis on 10% SDS-PAGE. […] The antibodies were dilute at 1:1,000 unless indicated otherwise. The bound primary antibodies were detected using appropriate horseradish peroxidase-conjugated secondary antibodies, followed by detection with a SuperSignal enhanced chemiluminescence kit (Pierce, Rockford, Ill.). For sequential blotting, the membranes were stripped with a stripping buffer (Pierce, Rockford, Ill.) followed by re-blotting with proper antibodies.

For series [3] the following is noted: mouse, in vivo.
In series [4] the test system is cancer cells. The series can be described thus: In vitro anticancer activity versus other glycolytic inhibitors. It is filed as cell-based.
Series [5] is described as follows: Stability of neutral drug solution on storage.
Series [6] relates to Raji cells. The series can be described thus: Cell growth by direct cell counting (Coulter Z2). It is filed as cell-based, human. On the procedure:
A different assay was then used to further confirm the synergy between rapamycin and 3-BrOP. Raji cells were treated with 30 μM 3-BrOP, 100 ng/ml rapamycin, or their combination, and the numbers of cells were directly counted for consecutive 3 days, using a Coulter Z2 Particle Count & Size Analyzer.
(§1) Cell growth inhibition was determined by direct counting of the cells after they were treated with rapamycin, 3-BrOP, or their combination. A Coulter Z2 Particle Count & Size Analyzer was used to determine cell counts at 24 h, 48 h, and 72 h after drug incubation. Apoptosis was measured by flow cytometric analysis of cells stained with annexin V-FITC and propidium iodide (PI). Cells were treated with the indicated compounds under various incubation conditions as described in the figure legends. The samples were collected, washed with cold PBS, and then suspended in annexin-V binding buffer. The cells were stained with annexin V-FITC for 15 min at room temperature, washed, and then stained with PI. The samples were analyzed using a FACSCalibur flow cytometer equipped with CELLQuestPro software (Becton-Dickinson, San Jose, Calif.).

The test system of series [7] is human lymphoma cells (Raji). The series can be described thus: Apoptosis, annexin-V/PI flow cytometry. It is filed as cell-based. To be noted: for apoptotic cells: 30 μM in combination with 100 ng/ml rapamycin; for apoptosis: 30 μM.
Description: Because the mTOR pathway plays an important role in promoting cellular nutrient metabolism and cell growth, and function to enhance cell survival downstream of the P13K/Akt pathway, the present inventors postulated that a simultaneous inhibition of mTOR and glycolysis, which serve as a major metabolic pathway for ATP generation in cancer cells, would severely impact cellular energy metabolism and have a potent cytotoxic effect against malignant cells. To test this possibility, rapamycin was used as an agent to inhibit mTOR, and glycolycin (3-bromo-2-oxopropionate, abbreviated herein as 3-BrOP) to inhibit glycolysis.
as §1
On the technique in general: In flow cytometry, cells or beads pass a laser one at a time.

Series [8] deals with Raji cells. The series can be described thus: Cellular ATP pool by HPLC. The series is classed as cell-based, human. On the procedure: HPLC analysis was then used to determine cellular ATP pool in an attempt to understand the biochemical basis of the synergistic activity of rapamycin and 3-BrOP. Raji cells were treated with various concentrations of 3-BrOP in the presence and absence of rapamycin (100 ng/ml) for 6 h, and cellular ATP and other nucleotide pools were measured by HPLC analysis as described in Examples herein.
Because this ATP depletion occurred before apoptosis became detectable, it seems that the enhancement of ATP depletion might be a biochemical mechanism by which rapamycin promote the cytotoxic effect of 3-BrOP. […]
After cells were treated with rapamycin and 3-BrOP under the desired conditions, cellular glucose uptake was measured by incubating the cells in glucose-free RPMI 1640 media with 0.2 μCi/ml of [^3H]-2-deoxyglucose (specific activity, 40 Ci/mmol) for 60 min. After the samples were washed three times with cold PBS, the radioactivity in the cell pellets was quantified by liquid scintillation counting. […] Intracellular nucleotides were extracted from the cells with 0.4 N of perchloric acid (PCA) for 10 min in ice-bath, neutralization with concentrated KOH to pH 7.0, and analyzed by HPLC analysis as described previously (Xu et al., 2005; Seymour et al., 1996). […] The relative cellular ATP levels were expressed as percent of the control cells.

On to `CCCOC(=O)C(=O)CBr` [Glycolycin, propyl 3-bromo-2-oxopropionate], for which the “% Cell Survival” value in series [1] (5 μM, fresh drug solution) turned out to be 19.3 ± 5.7%; in series [1] (10 μM, drug stored for 3 weeks at 4° C.) it was 3.0 ± 1.3%; in series [1] (10 μM, fresh drug solution), 2.5 ± 0.8%; in series [1] (30 μM, drug stored for 3 weeks at 4° C.), 2.9 ± 1.2%; in series [1] (30 μM, fresh drug solution), 3.7 ± 0.6%; in series [1] (100 μM, drug stored for 3 weeks at 4° C.), 2.5 ± 0.9%. Moreover, the “% Cell Survival” value in series [1] (100 μM, fresh drug solution) is 3.5 ± 1.7%. The “BAD phosphorylation at Ser112” value in series [2] (20 μM, 6 hours) is given as “did not reduce”; in series [2] (40 μM in the presence of rapamycin (100 ng/ml)), “complete abolished”; in series [2] (40 μM, 6 hours), “substantial decrease”. The “phosphorylation of P70 S6K at Thr389 and 4E-BP-1 at Ser65” value in series [2] (40 μM, 6 hours) is on record as “some inhibition”. Further, in series [3], the toxicity in mice result is on record as “No obvious toxicity”. In addition, the “toxicity in animals, such as mice” value in series [3] (5 mg/kg) is given as “no apparent toxicity”. In addition, the “potency as measured by IC50 relative to currently available glycolytic inhibitors with a similar mechanism of action” value in series [4] is given as 10-20 fold. Moreover, the “activity of solution after storage” value in series [5] (kept at 4° C. for 3 weeks) was “remained stable”. Also, the “stability of solution at neutral pH” value in series [5] (pH 7.0, kept at 4° C.) is reported as “stable”. In addition, in series [6] (30 μM alone, up to 72 h), the “decrease in cell numbers” value is given as approximately 35%. For the same molecule, in series [6] (30 μM in combination with 100 ng/ml rapamycin), the cell growth entry is on record as “almost complete inhibition of cell growth”. The values for the apoptotic cells in series [7] (24 h) and in series [7] (48 h) were 38% and 79%, respectively. Moreover, the apoptosis amounted to 19% in series [7] (24 h) and 49% in series [7] (48 h). In addition, the “cellular ATP pool” value was “significantly enhanced the depletion of cellular ATP” in series [8] (6-h treatment after pre-incubation with 100 ng/ml rapamycin for 18 h) and “concentration-dependent decrease” in series [8] (various concentrations, 6 h).

(Values after patent US20060058383A1 (priority 2004, published 2006).)
